{Dendrimer} = dendrimer conjugate (vivo-morpholino)
Columns and labels:
Format in all cases: in vivo
[1] = test system: sVEGFR2/mbVEGFR2 mRNA; test: Real-time PCR of mouse retinal total RNA after intravitreous injection; conditions: 2 μl of 100 ng/μl intravitreously on day 0 and day 3, retina on day 4, vivo-morpholino
From the text: To administer morpholinos in vivo, morpholino conjugated with a dendrimer at the 3′ position (vivo-morpholino) was used for animal experiments. It should be understood that this technique is merely exemplary, and any other method of administration is considered to be within the present scope. […] Next, the protein level of mbVEGFR2 and sVEGFR2 in the retina and the ocular solution was examined by western blot. Consistent with real-time PCR results, moVEGFR2_MOe13 decreased mbVEGFR2 protein in the retina (FIG. 7C) and increased sVEGFR2 protein in the ocular solution (FIG. 7D).
To examine whether moVEGFR2_MOe13 could work in the mouse eye, on day 0 and day 3 2 μl of 100 ng/μl moVEGFR2_MOe13 or STD_MO or DPBS were injected intravitreously. On day 4, retinal total RNA was extracted with RNeasy mini kit with DNaseI treatment. sVEGFR2 and mbVEGFR2 mRNA expression were determined by the method described above. For western blot of mbVEGFR2, on day 4, retina was dissolved in RIPA buffer. For western blot of sVEGFR2, on 4 day, intraocular solution was obtained from 6 eyes by pipette. After centrifuge, supernatant was used for further experiment. For western blot, biotin-conjugated anti-VEGFR2 (BAF644, R&D Systems, Minneapolis, Minn.) was used at 1 μg/μl.

[2] = test system: corneal transplant rejection; test: Mouse corneal transplantation model
Protocol: It was also examined whether moVEGFR2_MOe13 can suppress murine corneal transplant rejection. After cornea transplantation, moVEGFR2_MOe13, STD_MO or DPBS were injected subconjuctivally. […] The arrow indicates censored data. […] Scale bar is 1 mm. FIGS. 12(c, d) Show the mean area of corneal neovascularization and lymphangiogenesis at 8 weeks respectively (n=11-17). Risk factors (p-value) were calculated by two-tail student's t-test (*: p<0.05, **p<0.01). Error bar is ±s.e.m.
Mouse corneal transplantation has been described previously. The donor cornea was marked with 2 mm trephine, the anterior chamber was penetrated using a knife (ClearCut™ Alcon, Inc) and the cornea was cut with Vannas scissors and then placed in Balanced Salt Solution (BSS® Alcon Laboratories, Inc, Fort Worth). The recipient mouse was anesthetized by intramuscular injection with ketamine (100 mg/kg body weight) and xylazine (20 mg/kg body weight). To dilate pupil and anesthetize the cornea, 1% tropicamide ophthalmic solution and 0.5% proparacaine ophthalmic solution were used. The recipient's right cornea was marked with 1.5 mm trephine and removed by the same method as the donor cornea. Viscoelastic material (Healon, 1% sodium hyaluronate, Abbott Medical Optics, IL) was used during recipient cornea dissection. […]

[3] = test system: laser-induced choroidal neovascularization (CNV); test: Laser-induced choroidal neovascularization (CNV) in mouse
Protocol: It was also examined whether moVEGFR2_MOe13 inhibits laser-induced choroidal neovascularization (CNV). Each morpholino or DPBS was injected intravitreously on day 1 and day 4 after laser photocoagulation, and laser CNV volumes were examined on day 7. […] Vessel endothelial cells were stained with Alexa fluor488 conjugated isolectin GS-IB4. […] After photocoagulation, on day 1 and day 4, 2 ul of 100 ng/μl STD_MO, 500 ng/μl Goat IgG (AB-108-C, R&D Systems, Minneapolis, Minn.), 100 ng/μl moVEGFR2_MOe13, 500 ng/μl Goat Anti-mouse VEGF-A IgG (AF-493-NA, R&D Systems, Minneapolis, Minn.) or 2 ng/μl SU1498 (572888, EMD chemicals, Gibbstown, N.J.) was injected intravitreously. On day 7, CNV volumes were measured by confocal microscope. n=14-20 for each group. Risk factors (p-value) were calculated by two-tail student's t-test (*: p<0.05, **p<0.01). Error bar is ±s.e.m.
Each morpholino oligomer was purchased from Gene Tools (Philomath, Oreg.). The sequences of each morpholino oligomer and primers for PCR are listed in supplemental Table. HUVECs (Lonza, Walkersville, Md.) were cultured in EBM with EGM SingleQuot Kit supplements and growth factors according to the manufacturer's instructions (Lonza, Walkersville, Md.). MS-1 cells, a mouse endothelial cell line (ATCC, Manassas, Va.) were cultured in 5% FBS/DMEM. Morpholino oligomers were delivered to the nucleus by nucleofection (Amaxa, Gaithersburg, Md.) with a Basic Nucleofector Kit for Primary Mammalian Endothelial Cells (Amaxa, Gaithersburg, Md.) using program A-034 for HUVEC and MS-1 cells. For each nucleofection, 1×10^6 cells were used and plated on a 6-well plate. After 2 days of culture, cells were trypsinized and total RNA was extracted using a RNeasy mini kit (Qiagen, Valencia, Calif.) with DNaseI treatment. Detection of mbVEGFR2 was achieved by flow cytometry. […] The cells were washed three times and fluorescence was detected by a FACScan Analyzer (BD Biosciences, San Jose, Calif.). […]

5′-cacccagggatgcctccatacCTAG-3′ (antisense CACCCAGGGATGCCTCCATACCTAG; all phosphorodiamidate morpholino (PMO), 3' {Dendrimer}) [moVEGFR2_MOe13, morpholino that targets the exon13-intron13 junction of the mouse VEGFR2 gene; in vivo conjugated with a dendrimer (vivo-morpholino)]
sVEGFR2/mbVEGFR2 mRNA ratio in retina [1]: significantly increased | corneal neovascularization and lymphangiogenesis at 8 weeks ([2]; mean area, CD31 and LYVE-1 stained cornea at the endpoint (8 weeks), FIGS. 12C, D): decreased | graft survival ([2]; mouse cornea transplantation, 15 ul of 40 ng/μl subconjunctivally day of transplantation and weeks 1-4, compared with DPBS and STD_MO (log rank p=0.0186 and 0.0610)): increased | suppression of CNV compared with anti-VEGF-A IgG and SU1498 (FIG. 9) ([3]; 2 μl intravitreously day 1 and day 4: 100 ng/μl moVEGFR2_MOe13, 500 ng/μl anti-mouse VEGF-A IgG, 2 ng/μl SU1498, CNV volume day 7): comparable | laser CNV volume ([3]; intravitreous injection on day 1 and day 4 after laser photocoagulation, volume on day 7, compared with STD_MO (p<0.05) and DPBS (p<0.01)): significantly suppressed
